Tests used:
Type in all cases: in vivo
Matricaria inodora [1] = test: Pre-emergence herbicidal action, greenhouse, 320 g/ha; conditions: application rate 320 g/ha, scored visually after about 3 weeks vs untreated controls
From the text: (§1) Seeds of monocotyledonous and dicotyledonous weed plants and crop plants were placed in plastic or organic planting pots and covered with soil. The compounds of the invention, formulated in the form of wettable powders (WP) or as emulsion concentrates (EC), were then applied to the surface of the covering soil as aqueous suspension or emulsion with addition of 0.5% additive at a water application rate equivalent to […]. After the treatment, the pots were placed in a greenhouse and kept under good growth conditions for the test plants. After about 3 weeks, the effect of the preparations is scored visually in comparison with untreated controls as percentages. For example, 100% activity=the plants have died, 0% activity=like control plants. Tables B1 to B14 below show the effects of selected compounds of the general formula (I) according to Tables I.1 to I.150 on various harmful plants and at an application rate corresponding to 320 g/ha, which were obtained by the experimental procedure mentioned above.

Amaranthus retroflexus [2] = test: as above; conditions: application rate 320 g/ha, scored visually after about 3 weeks vs untreated controls
From the text: as §1

Hordeum murinum = test: as above; conditions: application rate 320 g/ha, Table B14
From the text: as §1

Polygonum convolvulus = test: as above; conditions: application rate 320 g/ha, scored visually after about 3 weeks vs untreated controls
From the text: as §1

Abutilon theophrasti [3] = test: as above; conditions: application rate 320 g/ha, scored visually after about 3 weeks vs untreated controls
From the text: as §1

Alopecurus myosuroides = test: as above; conditions: application rate 320 g/ha, scored visually after about 3 weeks vs untreated controls
From the text: as §1

Stellaria media [4] = test: as above; conditions: application rate 320 g/ha, scored visually after about 3 weeks vs untreated controls
From the text: as §1

Viola tricolor [5] = test: as above; conditions: application rate 320 g/ha, Table B8
From the text: as §1

Pharbitis purpurea = test: as above; conditions: application rate 320 g/ha, Table B12
From the text: as §1

Setaria viridis [6] = test: as above; conditions: application rate 320 g/ha, Table B11
From the text: as §1

Avena fatua = test: as above; conditions: application rate 320 g/ha, scored visually after about 3 weeks vs untreated controls
From the text: as §1

Digitaria sanguinalis = test: as above; conditions: application rate 320 g/ha, Table B9
From the text: as §1

Amaranthus retroflexus [7] = test: Post-emergence herbicidal action, greenhouse, 320 g/ha; conditions: application rate 320 g/ha, rated visually after about 3 weeks vs untreated controls
Experimental: (§2) Seeds of monocotyledonous and dicotyledonous weeds and crop plants were placed in sandy loam in plastic or wood-fiber pots, covered with soil and cultivated in a greenhouse under controlled growth conditions. 2 to 3 weeks after sowing, the test plants were treated at the one-leaf stage. The compounds of the invention, formulated in the form of wettable powders (WP) or as emulsion concentrates (EC), were then sprayed onto the green parts of the plants as aqueous suspension or emulsion with addition of 0.5% additive at a water application rate of […] (converted). After the test plants had been kept in the greenhouse under optimum growth conditions for about 3 weeks, the activity of the preparations was rated visually in comparison to untreated controls. For example, 100% activity=the plants have died, 0% activity=like control plants. Tables A1 to A14 below show the effects of selected compounds of the general formula (I) according to Tables 1.1 to 1.150 on various harmful plants and at an application rate corresponding to 320 g/ha, which were obtained by the experimental procedure mentioned above.

Setaria viridis [8] = test: as above; conditions: application rate 320 g/ha, rated visually after about 3 weeks vs untreated controls
Experimental: as §2

Stellaria media [9] = test: as above; conditions: application rate 320 g/ha, rated visually after about 3 weeks vs untreated controls
Experimental: as §2

Viola tricolor [10] = test: as above; conditions: application rate 320 g/ha, rated visually after about 3 weeks vs untreated controls
Experimental: as §2

Veronica persica = test: Pre-emergence herbicidal action, greenhouse, 320 g/ha; conditions: application rate 320 g/ha, Table B13
From the text: as §1

Matricaria inodora [11] = test: Herbicidal pre-emergence action (Part 2), 1280 g/ha; conditions: application rate 1280 g/ha, scored visually after about 3 weeks, Table D7
From the text: (§3) Seeds of mono- and dicotyledonous weed plants were placed in plastic pots in sandy loam soil (doubly sown with in each case one species of mono- or dicotyledonous weed plants per pot) and covered with soil. The compounds of the invention, formulated in the form of wettable powders (WP) or as emulsion concentrates (EC), were then applied onto the surface of the covering soil as aqueous suspension or emulsion with addition of 0.5% additive at a water application rate of 600 liters per hectare (converted). After the treatment, the pots were placed in a greenhouse and kept under good growth conditions for the test plants. After about 3 weeks, the effect of the preparations was scored visually in comparison with untreated controls as percentages. For example, 100% activity=the plants have died, 0% activity=like control plants. Tables D1 to D8 below show the effects of selected compounds of the general formula (I) according to Tables 1.1 to 1.150 on various harmful plants and at an application rate corresponding to 1280 g/ha, which were obtained by the experimental procedure mentioned above.

Amaranthus retroflexus [12] = test: as above; conditions: application rate 1280 g/ha, scored visually after about 3 weeks, Table D6
From the text: as §3

Abutilon theophrasti [13] = test: as above; conditions: application rate 1280 g/ha, scored visually after about 3 weeks, Table D5
From the text: as §3

Stellaria media [14] = test: as above; conditions: application rate 1280 g/ha, scored visually after about 3 weeks, Table D8
From the text: as §3

Poa annua = test: as above; conditions: application rate 1280 g/ha, scored visually after about 3 weeks, Table D3
From the text: as §3

Matricaria inodora [15] = test: Herbicidal post-emergence action (Part 2), 1280 g/ha; conditions: application rate 1280 g/ha, rated visually after about 3 weeks, Table C6
Experimental: (§4) Seeds of mono- and dicotyledonous weed plants were placed in plastic pots in sandy loam soil (doubly sown with in each case one species of mono- or dicotyledonous weed plants per pot), covered with soil and cultivated in a greenhouse under controlled growth conditions. 2 to 3 weeks after sowing, the test plants were treated at the one-leaf stage. The compounds of the invention, formulated in the form of wettable powders (WP) or as emulsion concentrates (EC), were applied onto the green parts of the plants as aqueous suspension or emulsion with addition of 0.5% additive at a water application rate of 600 liters per hectare (converted). After the test plants had been kept in the greenhouse under optimum growth conditions for about 3 weeks, the activity of the preparations was rated visually in comparison to untreated controls. For example, 100% activity=the plants have died, 0% activity=like control plants. Tables C1 to C7 below show the effects of selected compounds of the general formula (I) according to Tables 1.1 to 1.150 on various harmful plants and at an application rate corresponding to 1280 g/ha, which were obtained by the experimental procedure mentioned above.

Amaranthus retroflexus [16] = test: as above; conditions: application rate 1280 g/ha, rated visually after about 3 weeks, Table C5
Experimental: as §4

Stellaria media [17] = test: as above; conditions: application rate 1280 g/ha, rated visually after about 3 weeks, Table C7
Experimental: as §4

Echinochloa crus-galli = test: Herbicidal pre-emergence action (Part 2), 1280 g/ha; conditions: application rate 1280 g/ha, scored visually after about 3 weeks, Table D1
From the text: as §3

| Structure (SMILES) | Matricaria inodora (efficacy in %) (Matricaria inodora [1]) [%] | Amaranthus retroflexus (efficacy in %) (Amaranthus retroflexus [2]) [%] | Polygonum convolvulus (efficacy in %) (Polygonum convolvulus) [%] | Abutilon theophrasti (efficacy in %) (Abutilon theophrasti [3]) [%] | Alopecurus myosuroides (efficacy in %) (Alopecurus myosuroides) [%] | Stellaria media (efficacy in %) (Stellaria media [4]) [%] | Viola tricolor (efficacy in %) (Viola tricolor [5]) [%] | Pharbitis purpurea (efficacy in %) (Pharbitis purpurea) [%] | Setaria viridis (efficacy in %) (Setaria viridis [6]) [%] | Digitaria sanguinalis (efficacy in %) (Digitaria sanguinalis) [%] | Matricaria inodora (Matricaria inodora [11]) [%] | Amaranthus retroflexus (Amaranthus retroflexus [12]) [%] | Stellaria media (Stellaria media [14]) [%] | Poa Annua (Poa annua) [%] | Matricaria inodora (Matricaria inodora [15]) [%] | Amaranthus retroflexus (Amaranthus retroflexus [16]) [%] | Stellaria media (Stellaria media [17]) [%] | also measured |
| --- | --- | --- | --- | --- | --- | --- | --- | --- | --- | --- | --- | --- | --- | --- | --- | --- | --- | --- |
| C=CCC(C)(C)c1cc(N2C(=O)N(C)CCC2O)no1 (stereo not shown) [I.1-199] | 100 | 100 | 90 | 100 | 90 | 100 | 100 |  |  |  |  |  |  |  |  |  |  | Hordeum murinum (efficacy in %) (Hordeum murinum): 80% |
| CN1CCC(O)N(c2noc(C(C)(C)C)c2F)C1=O (stereo not shown) [I.1-206] | 100 | 90 | 90 | 90 | 80 | 100 | 100 | 80 | 90 | 100 |  |  |  |  |  |  |  | Hordeum murinum (efficacy in %) (Hordeum murinum): 80%; Avena fatua (efficacy in %) (Avena fatua): 80% |
| CN1CCC(O)N(c2cc(C(F)(F)F)c(Cl)cn2)C1=O (stereo not shown) [I.1-451] | 100 | 90 | 90 |  |  | 100 | 100 |  | 90 | 90 |  |  |  |  |  |  |  | Amaranthus retroflexus (efficacy in %) (Amaranthus retroflexus [7]): 100%; Setaria viridis (efficacy in %) (Setaria viridis [8]): 80%; Stellaria media (efficacy in %) (Stellaria media [9]): 100%; Viola tricolor (efficacy in %) (Viola tricolor [10]): 100% |
| CN1CCC(O)N(c2cc(C(F)(F)F)ncn2)C1=O (stereo not shown) [I.1-506] | 100 | 90 | 100 | 80 | 90 | 100 | 100 | 100 | 100 | 100 |  |  |  |  |  |  |  | Avena fatua (efficacy in %) (Avena fatua): 80%; Veronica persica (efficacy in %) (Veronica persica): 80%; Amaranthus retroflexus (efficacy in %) (Amaranthus retroflexus [7]): 100%; Setaria viridis (efficacy in %) (Setaria viridis [8]): 100% |
| CC(=O)OC1CCN(C)C(=O)N1C1=NOC(C)(C)C1 (stereo not shown) [I.2-709] | 100 |  | 100 | 80 | 90 | 100 | 100 | 100 |  | 90 |  |  |  |  |  |  |  | Veronica persica (efficacy in %) (Veronica persica): 100% |
| CCC(=O)OC1CCN(C)C(=O)N1c1cc(C(C)(C)C)no1 (stereo not shown) [I.3-290, 3-(3-tert-Butyl-1,2-oxazol-5-yl)-1-methyl-2-oxohexahydropyrimidin-4-yl Propionate] |  |  |  |  |  |  |  |  |  |  | 100 | 100 | 100 | 100 | 90 | 100 | 100 | Abutilon theophrasti (Abutilon theophrasti [13]): 100% |
| CCC(=O)OC1CCN(C)C(=O)N1c1cc(C(F)(F)F)c(Cl)cn1 (stereo not shown) [I.3-451] |  |  |  |  |  |  |  |  |  |  | 90 | 100 | 100 | 90 |  | 100 | 100 | Echinochloa crus-galli (Echinochloa crus-galli): 100% |
| CC(C)CC(=O)OC1CCN(C)C(=O)N1c1cc(C(F)(F)F)ccn1 (stereo not shown) [I.7-449] |  |  |  |  |  |  |  |  |  |  | 100 | 100 | 100 | 90 | 90 | 100 |  |  |
| CCCC(=O)OC1CC(C)N(C)C(=O)N1c1cc(C(F)(F)F)ccn1 (stereo not shown) [I.44-449] |  |  |  |  |  |  |  |  |  |  | 90 | 100 | 100 |  |  |  | 90 | Echinochloa crus-galli (Echinochloa crus-galli): 100% |
| CCC(=O)OC1N(c2cc(C(C)(C)C)on2)C(=O)N(C)CC1(C)C (stereo not shown) [I.63-162] |  |  |  |  |  |  |  |  |  |  | 90 | 100 | 100 | 100 | 100 | 100 | 100 | Abutilon theophrasti (Abutilon theophrasti [13]): 100% |
